Source: BindingDB's records for doi:10.3109/14756369709035812 (Universite Paul Sabatier, 1997)

Target: T1, Hexokinase-1 (Saccharomyces cerevisiae (strain ATCC 204508 / S288c), UniProt P04806)
T1 sequence (P04806 whole entry): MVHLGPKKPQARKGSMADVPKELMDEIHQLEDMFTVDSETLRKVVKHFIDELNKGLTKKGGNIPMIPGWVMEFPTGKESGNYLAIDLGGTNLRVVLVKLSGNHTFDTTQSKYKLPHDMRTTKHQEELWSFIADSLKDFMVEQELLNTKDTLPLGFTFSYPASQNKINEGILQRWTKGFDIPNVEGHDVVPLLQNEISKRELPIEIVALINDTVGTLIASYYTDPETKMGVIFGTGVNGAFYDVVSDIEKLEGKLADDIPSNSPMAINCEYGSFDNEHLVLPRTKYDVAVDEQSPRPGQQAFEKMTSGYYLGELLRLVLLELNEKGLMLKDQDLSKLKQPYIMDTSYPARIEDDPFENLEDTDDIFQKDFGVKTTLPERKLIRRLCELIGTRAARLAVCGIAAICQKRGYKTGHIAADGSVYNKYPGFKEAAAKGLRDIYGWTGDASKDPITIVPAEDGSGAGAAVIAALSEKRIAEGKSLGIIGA
Experiment: Enzyme Inhibition Assay
Settings: pH 7.6; 25 °C
Description: The assay phosphotransferase activity was followed spectrophotometrically b reduction of NADP in the presence of an excess of glucose-6-phosphate-dehydrogenase (method A). ATPase activity was measured by spectrophotometric measurement of the rate of oxidation of NADH in the presence of phospho-enol-pyruvate, pyruvated-kinase and lactate-dehydrogenase (method B).

| Compound | IC50 [mM] |
| --- | --- |
| O=C(N[C@@H]1[C@@H](O)[C@H](O)[C@@H](CO)O[C@H]1O)c1ccccc1 [Glucosamine analog, 1] | 7 |
| O=C(NC1C(O)OC(CO)C(O)C1O)c1cccc([N+](=O)[O-])c1 (configuration not stated) [Glucosamine analog, 8] | 6 |
| CC(=O)Nc1ccccc1C(=O)NC1C(O)OC(CO)C(O)C1O (configuration not stated) [Glucosamine analog, 4] | 18 |

Second part, the compound after the results:

| IC50 [mM] | Compound |
| --- | --- |
| 8 | Cc1ccccc1C(=O)N[C@@H]1[C@@H](O)[C@H](O)[C@@H](CO)O[C@@H]1O [Glucosamine analog, 2] |
| 6 | Nc1cccc(C(=O)NC2C(O)OC(CO)C(O)C2O)c1 (configuration not stated) [Glucosamine analog, 10] |
| 3 | O=C(NC1C(O)OC(CO)C(O)C1O)c1ccccc1[N+](=O)[O-] (configuration not stated) [Glucosamine analog, 7] |
| 1 | Nc1ccccc1C(=O)NC1C(O)OC(CO)C(O)C1O (configuration not stated) [Glucosamine analog, 9] |
